Key:
Zap-70 [1] = target: T1, Zap-70 (Homo sapiens, UniProt P43403); assay: Pomalidomide-beads pull-down from Jurkat whole cell lysates; format: binding; design: purchased Origene, Rockville, MD; conditions: competitor 1 mM free pomalidomide, 1 h
T1 sequence (P43403 1-619): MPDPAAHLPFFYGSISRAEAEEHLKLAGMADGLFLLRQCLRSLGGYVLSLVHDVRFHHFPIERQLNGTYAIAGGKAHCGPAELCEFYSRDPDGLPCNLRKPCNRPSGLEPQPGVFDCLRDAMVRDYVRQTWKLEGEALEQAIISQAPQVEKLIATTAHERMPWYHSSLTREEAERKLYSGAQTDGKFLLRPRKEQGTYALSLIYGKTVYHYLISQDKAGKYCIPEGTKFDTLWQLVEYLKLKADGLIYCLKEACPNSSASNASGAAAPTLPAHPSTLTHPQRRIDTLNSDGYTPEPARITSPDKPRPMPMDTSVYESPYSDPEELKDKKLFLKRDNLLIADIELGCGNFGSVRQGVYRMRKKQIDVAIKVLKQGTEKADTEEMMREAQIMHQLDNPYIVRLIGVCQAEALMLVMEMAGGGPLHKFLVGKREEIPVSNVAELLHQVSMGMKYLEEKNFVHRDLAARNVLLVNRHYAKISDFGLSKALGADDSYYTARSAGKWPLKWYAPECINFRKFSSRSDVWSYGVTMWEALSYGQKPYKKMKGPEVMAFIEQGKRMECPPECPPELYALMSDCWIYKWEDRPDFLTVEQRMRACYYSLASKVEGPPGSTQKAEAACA
Protocol: (A) Jurkat cells were transfected with scrambled (Sc) siRNA or Zap-70 siRNA. Whole cell lysates were subjected to immunoblotting using indicated Abs. (B) Jurkat cells were treated with lenalidomide ([…]) or pomalidomide (1 and 3 μM) for 4 h and 8 h. Whole cell lysates were subjected to p-Zap ELISA assay. (C) Jurkat whole cell lysates were incubated with pomalidomide-beads in the presence or absence of competitor (1 mM free pomalidomide) for 1 h. After elution, samples were subjected to immunoblotting using anti-Zap-70 Ab. (D) Saturation-transfer difference resulting from the binding of pomalidomide to Zap-70. Pomalidomide is at 320 μM and Zap-70 is approximately 2 μM in deuterated PBS solution. […] (E) Saturation-transfer difference resulting from the binding of pomalidomide to Zap-70 in the presence of 2.56 mMATP. Pomalidomide is at 320 μM and Zap-70 is approximately 2 μM in deuterated PBS solution. […] Note that both ATP and pomalidomide show binding the Zap-70. (F) Non-cell based Zap-70 kinase assay was carried out, according to manufacturer's protocol.

U266 cells = assay: Primary NK cell cytolytic activity against calcein AM-labeled U266; format: cell-based, human; conditions: primary NK cells #1, #2, pomalidomide 0.25-1 μM 24 h, E/T 5/1 and 10/1
Protocol: (§1) KHYG-1 cells were cultured with pomalidomide (0.25-1 μM) for 24 h. (A) Whole cell lysates were subjected to immunoblotting using indicated Abs. (B) KHYG-1 cells were incubated with calcein-AM-stained U266 cells for 4 h at the indicated effector/target (E/T) ratios. Percent specific lysis was calculated as described previously. (C) KHYG-1 cells were transfected with Scsi or Zap-70si, and then cultured with pomalidomide (0.25 μM) for 72 h in the absence of IL-2. Viable cell number was determined, and cells were then incubated with calcein AM-labeled U266 target cells for 4 h at indicated effector/target (E/T) ratios. Percent specific lysis was calculated as described previously. (D) After transfection with Scsi or Zap-70si, cells were cultured with lenalidomide or pomalidomide for 72 h. Cell growth was assessed by MTT assay. (E) KHYG-1 cells were transfected with scrambled (Scsi) or CRBNsi. The transfectants were then cultured with pomalidomide (0.5 μM) for 24 h, and whole cell lysates were subjected to immunoblotting using indicated Abs. The arrow indicates CRBN expression. (F) Primary NK cells (#1, #2, #3, #4) were isolated from healthy volunteer's PBMCs, as described in Materials and Methods. NK cells were cultured with pomalidomide (0.5 μM) for 24 h, and whole cell lysates were subjected to immunoblotting using indicated Abs. […] Percent specific lysis was calculated as previously described.

Zap-70 [2] = target: T1, Zap-70; assay: Immunoblotting of p-Zap-70 in NK-92 cells; format: cell-based; conditions: 24 h, Pom 0.5 and 1 μM, CC-220 0.01, 0.1, 1 μM
Protocol: (§2) (A) NK-92 cells were cultured with Pom (0.5 and 1 μM) for 24 h. Whole cell lysates were subjected to immunoblotting using indicated Abs. (B) NK-92 cells were cultured with Pom (0.5 and 1 μM) for 48 h. The cells were subsequently incubated with calcein-AM-stained U266 cells for 4 h at the indicated effector/target (E/T) ratios. Percent specific lysis was calculated as described previously. (C) NK-92 cells were cultured with Pom (0.03-3 μM) for 72 h. Cell growth was assessed by MTT assay. (D) NK-92 cells were transfected with scrambled (Sc) or Zap-70 siRNA (Zap70si). After 72 h incubation, cell viability was measured by trypan-blue dye exclusion. For B, C, and D, data are representative of at least two independent experiments, and values are expressed in mean±SD.
(A) NK-92 cells were cultured with Len (1 μM), Pom (0.01, 0.1, 1 μM) or CC-220 (0.01, 0.1, 1 μM) for 24 h. Whole cell lysates were subjected to immunoblotting using indicated Abs. (B) NK-92 cells were cultured with Pom (0.1 and 1 μM) or CC-220 ([…]) for 48 h. NK cell activity was measured by incubation with calcein AM-labeled U266 cells for 4 h at E/T ratio of 2.5/1. Percent specific lysis was calculated as previously described. Data are representative of three independent experiments, and values are expressed in mean±SD. *: p<0.01.

Zap-70 [3] = target: T1, Zap-70; assay: Immunoblotting of p-Zap-70 in KHYG-1 NK cell line; format: cell-based; conditions: KHYG-1 cells, pomalidomide 0.25-1 μM, 24 h
Protocol: as §1

primary NK cells = assay: Primary NK cell viable cell number by trypan-blue dye exclusion; format: cell-based, human; conditions: primary NK cells #1, #2, pomalidomide 0-0.5 μM, 24 h
Protocol: Isolated primary NK cells from two healthy volunteers were cultured for 24 h with pomalidomide (0-0.5 μM). Viable cell number was measured by trypan-blue dye exclusion.

NK-92 cells = assay: NK-92 cell growth by MTT assay; format: cell-based; conditions: Pom 0.03-3 μM, 72 h
Protocol: as §2

In the case of `Nc1cccc2c1C(=O)N(C1CCC(=O)NC1=O)C2=O` (stereo not drawn) [pomalidomide], the “competition of Zap-70 pull-down by Pom-beads” value (Zap-70 [1]) was “inhibited by free pomalidomide”, the “NK cytolytic activity against U266 cells” value (U266 cells) was “significantly enhanced their NK cytolytic activity against U266 cells” and the “p-Zap-70 (immunoblotting)” value (Zap-70 [2]) was “induced increased p-Zap70”. For the same compound, the “p-Zap-70 (immunoblotting)” value (Zap-70 [3]) was “similarly enhanced p-Zap-70 in KHYG-1 cells”, the “NK cell growth (viable cell number)” value (primary NK cells) was “without significantly effecting NK cell growth” and the “cell growth (MTT)” value (NK-92 cells) was “neither Pom nor Zap-70 KD altered growth in NK-92 cells”.
